The values below come from US20260132127A1, “NOVEL SPIRO COMPOUND” (MITSUBISHI TANABE PHARMA CORPORATION, priority 2021, published 2026).

For orientation: IC50 means the concentration that inhibits the measured activity by half.

The target in this test is T1, human TRH-DE (Homo sapiens, UniProt Q9UKU6).
T1 construct: expressed in transfected cells; host or cells: Expi 293 cells (transient expression), membrane fraction
T1 sequence (Q9UKU6 1-1069): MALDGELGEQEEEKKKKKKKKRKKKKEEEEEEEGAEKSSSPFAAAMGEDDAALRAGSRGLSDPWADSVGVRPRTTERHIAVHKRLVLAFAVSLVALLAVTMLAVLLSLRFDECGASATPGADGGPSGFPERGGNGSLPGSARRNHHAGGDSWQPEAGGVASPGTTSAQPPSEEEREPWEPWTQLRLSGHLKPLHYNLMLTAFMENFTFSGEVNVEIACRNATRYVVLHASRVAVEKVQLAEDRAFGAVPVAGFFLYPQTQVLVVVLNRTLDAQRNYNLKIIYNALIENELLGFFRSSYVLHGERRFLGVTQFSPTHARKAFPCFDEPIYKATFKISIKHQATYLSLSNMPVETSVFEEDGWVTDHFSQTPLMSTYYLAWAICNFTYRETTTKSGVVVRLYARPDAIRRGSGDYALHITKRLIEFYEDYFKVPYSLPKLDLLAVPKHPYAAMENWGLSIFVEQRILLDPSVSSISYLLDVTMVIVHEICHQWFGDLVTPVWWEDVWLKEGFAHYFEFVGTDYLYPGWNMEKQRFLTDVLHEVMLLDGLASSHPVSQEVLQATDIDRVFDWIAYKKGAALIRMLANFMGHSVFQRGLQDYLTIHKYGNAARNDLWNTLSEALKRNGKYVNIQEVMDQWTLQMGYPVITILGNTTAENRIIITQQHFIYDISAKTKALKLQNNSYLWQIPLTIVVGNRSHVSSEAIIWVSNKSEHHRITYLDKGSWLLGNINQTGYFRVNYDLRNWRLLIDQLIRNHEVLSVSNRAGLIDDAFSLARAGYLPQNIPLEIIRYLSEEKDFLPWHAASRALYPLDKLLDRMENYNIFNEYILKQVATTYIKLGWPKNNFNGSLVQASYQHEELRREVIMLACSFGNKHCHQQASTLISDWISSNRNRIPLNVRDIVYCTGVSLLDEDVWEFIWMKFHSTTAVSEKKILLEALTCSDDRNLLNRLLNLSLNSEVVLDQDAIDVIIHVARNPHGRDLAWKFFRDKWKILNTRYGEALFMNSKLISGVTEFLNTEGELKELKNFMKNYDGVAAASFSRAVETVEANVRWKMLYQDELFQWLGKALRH
The experiment in a line: TRH-DE inhibition test (RapidFire MS measurement of product Cyclo (His-Pro)). The format is biochemical. The following applies: membrane fraction of Expi 293 cells expressing human TRH-DE; 10 μM TRH substrate; room temperature, 2 hours; 16-point concentration test. The protocol: The compounds described in “1. […] The enzyme inhibitory activity of each of the compounds was evaluated by measuring the amount of the product Cyclo (His-Pro) of the enzyme reaction using a RapidFire RF 365 HTMS system (manufactured by Agilent Technologies, Inc.) connected to a triple quadrupole mass spectrometer (API 4000, manufactured by SCIEX). A membrane fraction prepared from Expi 293 cells transiently expressing human TRH-DE was used as an enzyme. The membrane fraction was suspended in 4 μg/ml of a reaction buffer (50 mM sodium phosphate (pH 7.4), 25 mM NaCl, 0.01% Triton […], and 200 μM bacitracin) and mixed with the test compound at each concentration. 10 μM […]), which was a substrate, was added, and the mixture was reacted at room temperature for 2 hours. The reaction was stopped in the same amount of a solution of acetonitrile:methanol (1:1) containing 1 μM of the stable isotope Cyclo ([…]) as an internal standard, and the supernatant was collected after centrifugation. In the RapidFire RF 365 HTMS system, a portion of the supernatant was aspirated, loaded onto a Graphic Carbon column (manufactured by Agilent Technologies, Inc.) with a buffer A (water, 0.09% formic acid, 0.01% trifluoroacetic acid) and washed with ultrapure water. Next, washing was performed with acetonitrile. The contents in the column were eluted with a buffer B (80% acetonitrile, 0.09% formic acid, 0.01% trifluoroacetic acid) and injected into a mass spectrometer for analysis. […] The ESI voltage was set to 5,500 V and the temperature was set to 650° C. For the calculation of the inhibition rate, a Ratio value corrected by dividing the product amount by the internal standard amount was used. The inhibition rate (%) was calculated by % Inhibition={1-(Ratio value of sample-Ratio value of blank)/(Ratio value of control-Ratio value of blank)}×100. The IC50 value was calculated from the concentration reactivity test at 16 points.

`C[C@@H]1CCNCC(=O)N1C1CC2(C1)CN(S(=O)(=O)c1ccccc1F)C2` [Example 442, (7R)-1-[2-(2-fluorophenyl)sulfonyl-2-azaspiro[3.3]heptan-6-yl]-7-methyl-1,4-diazepan-2-one]: the IC50 was determined as 551 nM.
Take `CC(=O)N1C[C@@H](C)N(C2CC3(C2)CN(S(=O)(=O)c2ccccc2F)C3)C(=O)c2ncccc21` [Example 302, (3R)-1-acetyl-4-[2-(2-fluorophenyl)sulfonyl-2-azaspiro[3.3]heptan-6-yl]-3-methyl-2,3-dihydropyrido[3,2-e][1,4]diazepin-5-one]: the IC50 came to 47 nM.
For `CC1C2C(c3nc(C4CC4)sc3C(=O)N1C1CC3(C1)CN(S(=O)(=O)c1ccccc1F)C3)C2(F)F` (stereo not drawn) [Example 133, (2R*,4S*,5R*)-10-cyclopropyl-3,3-difluoro-6-[2-(2-fluorophenyl)sulfonyl-2-azaspiro[3.3]heptan-6-yl]-5-methyl-9-thia-6,11-diazatricyclo[6.3.0.02.4]undec-1(8),10-dien-7-one], the IC50 came to 4 nM.
Then `CC1COc2ncccc2C(=O)N1C1CC2(C1)CN(S(=O)(=O)c1ccc(F)cc1)C2` (racemic) [Example 80], with 295 nM; and `CC1COc2cccnc2C(=O)N1C1CC2(C1)CN(S(=O)(=O)c1ccccc1F)C2` (single isomer, unassigned) [Example 349], with 507 nM.
Turning to `Cc1ccc(F)c(S(=O)(=O)N2CC3(CC(N4C(=O)c5ccccc5C4(C)O)C3)C2)c1` (racemic) [Example 287], the IC50 was 90 nM.
Then `CCCN(C(=O)c1cccc2[nH]c(C)nc12)C1CC2(C1)CN(S(=O)(=O)c1cc(C)ccc1F)C2` [Example 430], with 48 nM.
The value for `C[C@@H]1COc2nc([C@@H]3C[C@@H]3F)sc2C(=O)N1C1CC2(C1)CN(S(=O)(=O)c1ccccc1F)C2` [Example 236, (6R)-2-[(1R,2S)-2-fluorocyclopropyl]-7-[2-(2-fluorophenyl)sulfonyl-2-azaspiro[3.3]heptan-6-yl]-6-methyl-5,6-dihydrothiazolo[5,4-f][1,4]oxazepin-8-one] was 2 nM; that for `C[C@@H]1COc2nc(NC3CC3)ncc2C(=O)N1C1CC2(C1)CN(S(=O)(=O)c1ccccc1F)C2` [Example 409] was 4 nM; that for `C[C@@H]1COc2nc(C(C)(F)F)sc2C(=O)N1C1CC2(C1)CN(S(=O)(=O)c1ccccc1F)C2` [Example 178] was 12 nM.
Then `CC1CCc2ncc(C(F)(F)F)cc2C(=O)N1C1CC2(C1)CN(S(=O)(=O)c1ccccc1F)C2` (racemic) [Example 89], with 286 nM; and `C[C@@H]1CCn2nc(C(F)(F)F)cc2C(=O)N1C1CC2(C1)CN(S(=O)(=O)c1ccccc1F)C2` [Example 193], with 25 nM.
`COCC1C(c2ccccc2)=CC(=O)N1C1CC2(C1)CN(S(=O)(=O)c1ccccc1F)C2` (stereo not drawn) [Example 422]: the IC50 came out at 218 nM.
`C[C@@H]1COc2nc(N(C)C)ncc2C(=O)N1C1CC2(C1)CN(S(=O)(=O)c1ccccc1F)C2` [Example 380] displayed an IC50 of 3 nM.
`Cc1snc2c1C=C[C@@H](C)N(C1CC3(C1)CN(S(=O)(=O)c1ccccc1F)C3)C2=O` [Example 126] came in with an IC50 of 24 nM.
The value for `CC1(O)c2cc(F)ccc2C(=O)N1C1CC2(C1)CN(S(=O)(=O)c1ccccc1F)C2` (racemic) [Example 276] was 74 nM; that for `Cc1nnc2n1C[C@@H](C)N(C1CC3(C1)CN(S(=O)(=O)c1ccccc1F)C3)C2=O` [Example 264] was 459 nM.
For the compound `CC1CCCC(=O)N1C1CC2(C1)CN(S(=O)(=O)c1ccccc1F)C2` (racemic) [Example 440, 1-[2-(2-fluorophenyl)sulfonyl-2-azaspiro[3.3]heptan-6-yl]-6-methylpiperidin-2-one], the IC50 worked out at 199 nM.
`COc1ccc(S(=O)(=O)N2CC3(CC(N4C(=O)c5cccnc5OCC4C)C3)C2)cc1` (racemic) [Example 75] had an IC50 of 120 nM.
Turning to `COCC(=O)N1C[C@@H](C)N(C2CC3(C2)CN(S(=O)(=O)c2ccccc2F)C3)C(=O)c2ncccc21` [Example 307], the midpoint of inhibition, the IC50, lay at 285 nM.
Take `C[C@@H]1COc2cc(Cl)ncc2C(=O)N1C1CC2(C1)CN(S(=O)(=O)c1ccccc1F)C2` [Example 22]: the IC50 stood at 2 nM.
Then `C[C@@H]1COc2cc(N(C)CC3CCCCC3)ncc2C(=O)N1C1CC2(C1)CN(S(=O)(=O)c1ccccc1F)C2` [Example 138], with 1 nM.
Turning to `C[C@@H]1COc2c(cnn2CC(F)F)C(=O)N1C1CC2(C1)CN(S(=O)(=O)c1ccccc1F)C2` [Example 200], the half-inhibitory concentration (IC50) stood at 19 nM.
The value for `C[C@@H]1CNc2ncc(C(F)(F)F)cc2C(=O)N1C1CC2(C1)CN(S(=O)(=O)c1ccccc1F)C2` [Example 256] was 3 nM; that for `O=C1c2ccc(C(F)(F)F)nc2OCC2(CC2)N1C1CC2(C1)CN(S(=O)(=O)c1ccccc1F)C2` [Example 62] was 393 nM.
Compound `CC1CSc2nc(C(F)(F)F)ccc2C(=O)N1C1CC2(C1)CN(S(=O)(=O)c1ccccc1F)C2` (racemic) [Example 259, 4-[2-(2-fluorophenyl)sulfonyl-2-azaspiro[3.3]heptan-6-yl]-3-methyl-8-(trifluoromethyl)-2,3-dihydropyrido[3,2-f][1,4]thiazepin-5-one] returned an IC50 of 152 nM.
Then `CC1CCCN(c2cc3c(cn2)C(=O)N(C2CC4(C2)CN(S(=O)(=O)c2ccccc2F)C4)[C@H](C)CO3)C1` (mixture of isomers) [Example 152], with 1 nM; and `C[C@@H]1COc2nc(N3C[C@H]4C[C@H]4C3)ncc2C(=O)N1C1CC2(C1)CN(S(=O)(=O)c1ccccc1F)C2` (relative stereo) [Example 168, (7R)-2-[(1S*,5R*)-3-azabicyclo[3.1.0]hexan-3-yl]-6-[2-(2-fluorophenyl)sulfonyl]-2-azaspiro[3.3]heptan-6-yl]-7-methyl-7,8-dihydropyrimido[5,4-f][1,4]oxazepin-5-one], with 2 nM; and `COc1cc2c(cn1)C(=O)N(C1CC3(C1)CN(S(=O)(=O)c1ccccc1F)C3)[C@H](C)CO2` [Example 165], with 2 nM.
The compound `CC1CCc2c(noc2C2CC2)C(=O)N1C1CC2(C1)CN(S(=O)(=O)c1ccccc1F)C2` (stereo not drawn) [Example 104] came in with an IC50 of 14 nM.
On to `CC1c2ccccc2C(=O)N1C1CC2(C1)CN(S(=O)(=O)c1ccccc1F)C2` (single isomer, unassigned) [Example 359], for which the IC50 was found to be 454 nM.
The value for `CC1c2cc(C(F)(F)F)cnc2C(=O)N1C1CC2(C1)CN(S(=O)(=O)c1ccccc1F)C2` (single isomer, unassigned) [Example 365] was 160 nM; that for `CCCC(=O)N1C[C@@H](C)N(C2CC3(C2)CN(S(=O)(=O)c2ccccc2F)C3)C(=O)c2ncccc21` [Example 304] was 1070 nM; that for `Cc1nn(C2CC3(C2)CN(S(=O)(=O)c2ccccc2F)C3)c(=O)c2ncccc12` [Example 243] was 436 nM.
Consider `C[C@@H]1CCN2CCC[C@H]2C(=O)N1C1CC2(C1)CN(S(=O)(=O)c1ccccc1F)C2` [Example 221], for which the IC50 is 988 nM.
`C[C@@H]1COc2nc(OC3CCC3)ncc2C(=O)N1C1CC2(C1)CN(S(=O)(=O)c1ccccc1F)C2` [Example 371] showed an IC50 of 5 nM.
